The values below come from patent publication EP3492483A1, “COMPOUNDS AND METHODS FOR TREATING BACTERIAL INFECTIONS” (The Washington University, priority 2009, dated 2011).

The structures appear in SMILES notation. ≈ marks a conversion by molar mass, not a printed value. Entries after “also recorded” stand apart in the source; their conditions may differ.

Data set [1] addresses T1, FimH (Escherichia coli, UniProt P08191). Particulars: previously reported, SPR; cited from earlier work.
Data set [2] deals with T1, FimH.
Excerpt: In order to more accurately determine the relative contributions of both binding affinity to FimH versus other compound properties to the potency seen in the cellular HA titer assay, a high-throughput fluorescence polarization (FP) (or anisotropy) competitive binding assay was developed using a fluorescent-labeled mannoside ligand shown in Scheme 4.
A fluorescent polarization assay was developed and miniaturized to monitor the direct binding of a synthesized fluorescently labeled butyl mannose derivative to the FimH receptor as well as competitive displacement by other synthetic mannosides. This fluorescent polarization assay provides a rapid method for monitoring improvements to receptor affinity during the synthetic process, as well as providing Kd binding affinity measurements.
Data set [3] has as its system PBC-1. The data set is described as follows: Growth curve with TMP-SMZ (MIC). The class given is cell-based, UPEC.
Data set [4] relates to UTI89 biofilm. Description: Biofilm formation inhibition assay (PVC, crystal violet). The class given is cell-based, UPEC. Particulars: PVC, LB, room temperature; read-out: IC50 of mannoside on UTI89 biofilm formation.
Description: First, the ability of mannoside derivatives to prevent UPEC type 1 dependent biofilm formation in the published Kolter assay was measured as optimized for the prototypic UTI89 strain used in these assays.
(§3) These mannosides were evaluated first for their ability to inhibit biofilm formation or disrupt preformed biofilms. Biofilm inhibition was evaluated on FimH-dependent UTI89 biofilms grown on PVC in LB at room temperature. […] Biofilm disruption was evaluated by the addition of mannosides to preformed 24 h biofilms followed by growth for an additional 16 h.
UTI89 biofilm was grown in LB +/- mannoside for 24 h at 22°C in PVC plates and quantitated using crystal violet.
Biofilm assay. UTI89 was grown in LB broth in wells of PVC microtiter plates at 23°C in the presence of individual mannosides at varying concentrations. After 48 h of growth, wells were rinsed with water and stained with crystal violet for quantification as described. For biofilm disruption activity in PVC plates, UTI89 was grown in LB broth in wells of PVC microtiter plates at 23°C. After 24 h of growth, mannoside was added and biofilms were grown for an additional 16h. Wells were then rinsed, stained with crystal violet and quantified.
In data set [5] the test system is UTI89. Description: Bladder bacterial titer (CFU), mouse UTI model, UTI89. Conditions: for total bacterial CFUs: 6 hpi. The class given is in vivo, mice. On the procedure: (§1) After invasion, UPEC are able to rapidly replicate to form IBCs, thus dramatically expanding in numbers. After maturation of the IBC, bacteria are able to disperse from the biomass and spread to neighboring cells to expand the buildup in bacterial numbers via next generation IBC. The ability of mannosides to block IBC formation was evaluated based on LacZ staining of whole mount bladders, a protocol developed to enumerate IBCs. Whole bladder titers were also determined by quantifying colony forming units (CFUs) at 6 hours post-infection and later time points as test compounds were further developed.
Animal infections. Bacteria were grown under type 1 pili-inducing conditions (2x24 h at 37°C statically in LB). The bacteria were harvested and resuspended to an OD600 of 0.5 in PBS. Eight-week-old C3H/HeN (Harlan) female mice were anesthetized by inhalation of isoflurane and infected via transurethral catheterization with 50 µl of the bacterial suspension, resulting in 1-2 x 10^7 inoculum. At 6 hpi, mice were sacrificed by cervical dislocation under anesthesia and the bladders were immediately harvested and processed as described below. All animal studies using mice were approved by the Animal Studies Committee of Washington University (Animal Protocol Number 20100002).
Bladder tissue bacterial titer determination. Mannoside ZFH-2056 was administered either IP (5 mg/kg) or orally (100 mg/kg) 30 min prior to inoculation with UTI89. To enumerate the bacteria present, mice were sacrificed at 6 hpi and bladders were aseptically removed and homogenized in 1 ml PBS, serially diluted and plated onto LB agar plates. CFU was enumerated after 16 h of growth at 37 °C.

Data set [6] concerns UTI89. The description is as above. Particulars: for bacterial titers upon boosting: pretreatment plus 2 treatments every 8h. The class given is in vivo, mice.
The nature of data set [7]: Solubility (qualitative statements). Particulars: relative to di-ester 15a.
Data set [8] has as its system PBC-1. Description: Bladder bacterial titer (CFU), mouse UTI model, TMP-SMZ resistant strain. The class given is in vivo, mice. As to the method:
(§2) Mice were either untreated or IP treated with mannoside ZFH-2056 30 min prior to inoculation with bacteria. […] Not only do the bacteria escape the immune system in their intracellular niche, they are also able to escape exposure to effective antibiotics.

Data set [9] can be described thus: Urine pharmacokinetic analysis of mannoside (LC-MS). The class given is in vivo, mice. As to the method: Pharamacokinetic analysis. […] An equal volume of 10 µM internal standard (ZFH-2050) was added to the urine.
Data set [10] deals with T2, FimH (Escherichia coli, UniProt Q1R2J4).
T2 construct: endogenous in cells; host or cells: type 1 piliated UPEC bacteria
The data set is described as follows: cell-based. Set-up: species or system UPEC.
Description: In some embodiments, activity of the compound is measured using hemmagglutination titer of guinea pig red blood cells. Hemagglutination of guinea pig red blood cells by type1 piliated UPEC is dependent upon FimH mannose binding ability and serial dilutions allow a quantitative analysis.
Biological activity against FimH was evaluated using a guinea pig red blood cell-based hemagglutination (HA) assay (ref) in which the concentration of the mannoside on reducing agglutination by 50% was used as the primary endpoint (50% HA titer).
Hemagglutination of guinea pig red blood cells by type1 piliated UPEC is dependent upon FimH mannose binding ability.

In data set [11] the test system is UTI89 biofilm. Description: Disruption of preformed biofilm. The class given is cell-based, UPEC. Conditions: for IC50: another 24h.
Description: as §3
For biofilm disruption activity in PVC plates, UTI89 was grown in LB broth in wells of PVC microtiter plates at 23°C. After 24 h of growth, mannoside was added and biofilms were grown for an additional 16h. Wells were then rinsed, stained with crystal violet and quantified. For biofilm disruption activity on PVC coverslips, UTI89 was grown in LB broth in 50 mL conicals containing PBC coverslips at 23°C. […] Coverslips were then rinsed, fixed with 2% paraformaldehyde (v/v), stained with SYTO9 (1:1000 in PBS; Molecular Probes) and observed with a Zeiss LSM410 confocal laser scanning microscope under a 63X objective.
UTI89 was grown in LB in PVC plates and allowed to form biofilm at RT for 24 or 48h. […] Biofilm was then allowed to grow for another 24h at RT. Biofilm formation was then quantitated using the standard crystal violet assay.
Data set [12] relates to UTI89. Description: IBC enumeration by LacZ staining of whole bladders. The class given is in vivo, mice. On the procedure:
as §1
To test the efficacy of the mannosides in vivo, UTI89 expressing type 1 pili were pre-incubated with mannosides, inoculated into mice and IBCs were quantitated at 6 hours post-infection (hpi).
Enumeration of bladder IBCs. For bacterial pretreatment experiments, mannoside was added to the bacterial suspension and incubated for 20 min. For animal pretreatment experiments, mannoside ZFH-2056 was administered either IP (5 mg/kg) or orally (100 mg/kg) 30 min prior to inoculation with UTI89. To accurately count the number of IBCs, mice were sacrificed 6 hpi and bladders were aseptically removed, bisected, splayed on silicone plates and fixed in 2% paraformaldehyde (v/v). IBCs, readily discernable as punctate violet spots, were quantified by LacZ staining of whole bladders.

Data set [13] concerns UTI89. Description: Gentamicin protection assay of infected mouse bladders. The class given is in vivo, mice. Particulars: 6 hpi, IP (5 mg/kg) pretreatment. An excerpt:
Based on the extensive elucidation of the UPEC pathogenic cascade, critical nodes in pathogenesis that mannosides would target and thereby have powerful and potent therapeutic ramifications were identified. The first step in the UPEC pathway involves FimH-mediated colonization of the bladder epithelium via the recognition of mannose receptors. Bacterial invasion into superficial bladder umbrella cells can then ensue. […] To test this, a well-established gentamicin protection assay that allows the determination of the luminally bound fraction versus the intracellular fraction was utilized (Fig 10). […] This may be due to contamination from bacteria in the urine or bacteria that are non-specifically associated with the epithelium. In any case, blocking invasion blocks the ability of the bacteria to rapidly expand in numbers. This is due to the ability of the mannosides to block the IBC mechanism.
The efficacy of in vivo mannoside treatment was evaluated after dosing animals with mannoside either IP or PO 30 min prior to infecting with UTI89. At 6 hpi the bladders were removed and total bacterial CFUs were quantitated. […] Gentamicin efficiently kills extracellular UPEC but is unable to penetrate tissue and thus intracellular bacteria survive gentamicin treatment18. […] In bladders from untreated mice, 10^3 - 10^4 CFUs remained after gentamicin treatment.
Gentamicin protection assay. […] The bladders were then bisected twice and washed three times in 500 µl of PBS each. The wash fractions were pooled, lightly spun at 500 rpm for 5 min to pellet exfoliated bladder cells, serially diluted, and plated onto LB agar to obtain the luminal fraction. The bladders were treated with 100 µg of gentamicin/ml for 90 min at 37°C. After treatment, the bladders were washed twice with PBS to eliminate residual gentamicin, homogenized in 1 ml of PBS, serially diluted, and plated onto LB agar to enumberate the CFUs in the intracellular fraction.

The conditions of data set [14]: 3 days of 54 µg/ml TMP and 270 µg/ml SMZ in drinking water. As to the method: as §2
Antibiotic treatment. […] Water was changed daily for 3 days prior to inoculation with UTI89.

Regarding `CCCCO[C@H]1O[C@H](CO)[C@@H](O)[C@H](O)[C@@H]1O` [Butylαman, α-D-butylmannoside, reference compound], the Kd on FimH [1] was 151 nM. The 50% effective concentration (EC50) at FimH [2] was determined as 245 nM.

With `CNC(=O)c1cc(C(=O)NC)cc(-c2ccc(O[C@H]3O[C@H](CO)[C@@H](O)[C@H](O)[C@@H]3O)cc2)c1` [Compound 50, N1,N3-dimethyl-5-[4-[(2R,3S,4S,5S,6R)-3,4,5-trihydroxy-6-(hydroxymethyl)tetrahydropyran-2-yl]oxyphenyl]benzene-1,3-dicarboxamide], in the data set with PBC-1 [3] (100 µM mannoside), the “effect on efficacy of TMP-SMZ killing” value was “not found to increase the efficacy of TMP-SMZ killing”. The half-inhibitory concentration (IC50) in the data set on UTI89 biofilm [4] is 740 nM; with UTI89 biofilm [11] (mannoside added at 24h), ~6000 nM; in the data set with UTI89 biofilm [11] (mannoside added at 48h) it was ~25000 nM. In addition, the bladder titers result was “significantly inhibited bacterial infection” in the data set with UTI89 [5] (5mg/kg 30 min prior, 10^7 UTI89, 6 hpi); “significantly reduced bacterial titers” with UTI89 [6] (5mg/kg 30 min prior, 10^7 UTI89, 24 hpi); “significantly inhibited bacterial infection” in the data set with UTI89 [6] (50mg/kg 30 min prior, 10^7 UTI89, 6 hpi); “significantly reduced bacterial titers” in the data set on UTI89 [6] (50mg/kg 30 min prior, 10^7 UTI89, 24 hpi). For the same compound, the “total bacterial CFUs” value with UTI89 [5] (IP (5 mg/kg) 30 min prior to inoculation, listed as ZFH-2056, 5 mg/kg) is “significant drop in bacterial counts; also recorded: significant drop in bacterial load”; in the data set with UTI89 [5] (oral (100 mg/kg) 30 min prior to inoculation), “significant drop in bacterial counts”. The 2 week titers entry with UTI89 [6] (10^6 inoculum, single dose 5mg/kg 30 min prior) is reported as “significant decrease in bacterial load”. The bacterial titers entry with UTI89 [6] (10^6 inoculum, treated vs untreated mice) was “significant decrease”; in the data set with UTI89 [6] (24hpi, single IP pretreatment 5mg/kg, 10^7 and 10^6 inoculum), “significant drop in bacterial titers”. For the same compound, the “bacterial titers, post-infection treatment” value in the data set with UTI89 [6] (24hpi, 5mg/kg IP 1h post-infection plus 2 treatments every 8h) is listed as “no efficacy observed”. Also, the “bacterial titers upon boosting” value in the data set on UTI89 [6] (24hpi, 10^6 inoculum) was “not observed”; in the data set on UTI89 [6] (24hpi, 10^7 inoculum), “further efficacy”. Moreover, the solubility result in [7] is listed as “much improved solubility”. Also, the “efficacy against TMP-SMZ resistant strains” value in the data set on PBC-1 [8] (Fig. 29) is reported as “increased efficacy”. The “bacterial load in the bladder” value in the data set on PBC-1 [8] (IP 30 min prior to inoculation, 6 hpi) is “significant drop in bacterial load”. For the same compound, the “lower initial urine concentration versus IP” value in data set [9] (100 mg/kg PO) stood at 10 fold. The “higher urine levels versus IP” value in [9] (100 mg/kg PO, 8 hours post-dosing) was determined as 10 fold. In addition, the “concentration in the urine” value in data set [9] (IP 5 mg/kg and 10 mg/kg, 30 min after treatment) is ~5000 µM. For the same compound, the “time by which mostly gone (eliminated in the urine)” value in data set [9] (IP dosing, post injection) lay in the range of 6 to 8 h. Also, the “drug cleared to the urine intact” value in data set [9] (mouse, in vivo) was > 95%. Further, the concentration at 8 h in data set [9] (mouse, urine, IP, eight hours after dosing, read-out: level in the urine) is ≤ 0.74 µM. The concentration for a half-maximal effect (EC50) was 370 nM at FimH [10] and 87 nM on FimH [2]. Also, on FimH [10] (HA titer vs FP EC50), the “difference in cell potency vs. binding (drop in cell activity relative to binding)” value is recorded as 4 fold. For the same compound, on FimH [10] (in words), the “inhibition of FimH-dependent hemagglutination” value is recorded as “potent inhibitors”. Also, the EC90 on FimH [10] (read-out: HA 50% titer EC90) turned out to be 370 nM. Besides, the “biofilm structure by confocal microscopy” value in the data set with UTI89 biofilm [11] (0.3 µM, 24 h biofilm plus 16 h) is listed as “lacked continuity”. Moreover, the IBCs entry with UTI89 [12] (6 hpi, UTI89 pre-incubated with 10 µM) was “most significant reduction in IBCs”. Also, the “IBC counts in the bladder” value in the data set with UTI89 [12] (10^6 inoculum, 6h) was “no IBCs observed”. Moreover, the IBC quantification result is “significant reduction in IBCs” in the data set with UTI89 [12] (IP (5 mg/kg) 30 min prior to inoculation, 6 hpi) and “significant reduction in IBCs” in the data set on UTI89 [12] (oral (100 mg/kg) 30 min prior to inoculation, 6 hpi). In addition, the luminal bacteria entry with UTI89 [13] was “significantly reduced”. Further, the “intracellular bacteria (CFUs after gentamicin)” value in the data set on UTI89 [13] (listed as ZFH-2056) is given as “eliminated all CFUs; also recorded: significantly reduced”.

The compound `COc1cc(Cc2cnc(N)nc2N)cc(OC)c1OC` [TMP, Trimethoprim] gave an MIC in the data set on PBC-1 [3] of 256 µg/mL (≈ 882 µM). In addition, the concentration in urine in data set [14] was 9950 ± 4360 µg/mL.
